32 molecules from patent US9316633B2, “Methods for identifying inhibitors of solute transporters” (The Regents of the University of California, priority 2006, dated 2016) can be followed below.

In the assay the target is T1, UT-B (Homo sapiens, UniProt Q13336).
T1 construct: the indicator cells are red blood cells that endogenously express the UT-B urea transporter; endogenous in cells; host or cells: human red blood cells (whole venous blood, single donor)
T1 sequence (Q13336 1-389): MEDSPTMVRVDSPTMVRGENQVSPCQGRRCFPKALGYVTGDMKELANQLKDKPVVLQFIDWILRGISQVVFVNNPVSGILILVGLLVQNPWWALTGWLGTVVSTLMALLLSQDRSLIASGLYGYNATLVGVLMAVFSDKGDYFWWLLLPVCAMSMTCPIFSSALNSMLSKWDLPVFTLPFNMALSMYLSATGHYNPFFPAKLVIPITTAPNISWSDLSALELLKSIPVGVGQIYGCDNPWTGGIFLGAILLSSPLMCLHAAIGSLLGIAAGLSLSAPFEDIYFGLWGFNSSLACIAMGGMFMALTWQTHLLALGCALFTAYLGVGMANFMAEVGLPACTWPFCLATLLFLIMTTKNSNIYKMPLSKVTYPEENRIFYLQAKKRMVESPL
The assay can be described thus: RBC lysis assay, human RBCs loaded with acetamide. It is filed as cell-based. As to conditions: UT-B inhibitory potency.

As usually defined, the EC50 is the concentration needed to bring the measured effect to its halfway point. Molecule `Cc1ccc(-c2nnc(Nc3ccc(OCC(N)=O)cc3)c3ccccc23)cc1S(=O)(=O)N(C)C` [ureainh-322, 2-(4-(4-(3-(N,N-dimethylsulfamoyl)-4-methylphenyl)phthalazin-1-ylamino)phenoxy)acetamide] came in with an EC50 (Table 5, phthalazinamines) of 2000 nM. Consider `CN(C)C(=O)c1ccc(Nc2nnc(-c3ccc(C(N)=O)cc3)c3ccccc23)cc1` [ureainh-303, 4-(4-(4-carbamoylphenyl)phthalazin-1-ylamino)-N,N-dimethylbenzamide], for which the concentration giving a half-maximal response (EC50) (Table 5, phthalazinamines) is 200 nM. Still for that read-out and setting: the value for `COc1ccc(Nc2nnc(-c3ccccc3)c3ccccc23)cc1` [ureainh-320, N-(4-methoxyphenyl)-4-phenylphthalazin-1-amine] was 4000 nM.

Take `C=CCn1c(NCc2cc(Br)ccc2O)nc2ccccc21` [ureainh-406, 2-((1-allyl-1H-benzo[d]imidazol-2-ylamino)methyl)-4-bromophenol]: where the note is “Table 7, aminobenzimidazoles”, the concentration giving a half-maximal response (EC50) came to 1000 nM. `COc1ccc(-c2nnc(Nc3ccc(OCC(N)=O)cc3)c3ccccc23)cc1` [ureainh-312, 2-(4-(4-(4-methoxyphenyl)phthalazin-1-ylamino)phenoxy)acetamide] yielded an EC50 (Table 5, phthalazinamines) of 1000 nM. In the case of `CNC(=O)COc1ccc(Nc2nnc(-c3ccc(C(=O)NCCO)cc3)c3ccccc23)cc1` [ureainh-311, N-(2-hydroxyethyl)-4-(4-(4-(2-(methylamino)-2-oxoethoxy)phenylamino)phthalazin-1-yl)benzamide], the midpoint of the response (Table 5, phthalazinamines), the EC50, lay at 800 nM. Still for that read-out and setting: the same measure for `Cc1ccc(-c2nnc(Nc3ccc(C(N)=O)cc3)c3ccccc23)cc1S(N)(=O)=O` [ureainh-329, 4-(4-(4-methyl-3-sulfamoylphenyl)phthalazin-1-ylamino) benzamide]: 5000 nM. As to `Cc1ccc(O)c(CNc2nc3ccccc3n2C(C)C)c1` [ureainh-415, 2-((1-isopropyl-1H-benzo[d]imidazol-2-ylamino)methyl)-4-methylphenol], it took 1000 nM to reach a half-maximal effect (Table 7, aminobenzimidazoles) (EC50).

Regarding `NC(=O)COc1ccc(Nc2nnc(-c3ccccc3)c3ccccc23)cc1` [ureainh-318, 2-(4-(4-phenylphthalazin-1-ylamino)phenoxy) acetamide], the half-maximal effective concentration (EC50) (Table 5, phthalazinamines) is 2000 nM. Still for that read-out and setting: the same measure for `CCN(CC)C(=O)c1ccc(-c2nnc(Nc3ccc(C(=O)NC)cc3)c3ccccc23)cc1` [ureainh-308, N,N-diethyl-4-(4-(4-(methylcarbamoyl)phenylamino)phthalazin-1-yl)benzamide]: 2000 nM; for `Cc1ccc(-c2nnc(Nc3ccc(O)cc3)c3ccccc23)cc1S(=O)(=O)NC(C)(C)CO` [ureainh-331, N-(1-hydroxy-2-methylpropan-2-yl)-5-(4-(4-hydroxyphenylamino)phthalazin-1-yl)-2-methylbenzenesulfonamide]: 9000 nM. Same read-out and setting: the value for `Cc1ccc(-c2nnc(Nc3ccc(C(N)=O)cc3)c3ccccc23)cc1S(=O)(=O)NCCO` [ureainh-324, 4-(4-(3-(N-(2-hydroxyethyl)sulfamoyl)-4-methylphenyl)phthalazin-1-ylamino) benzamide] was 5000 nM. Consider `COc1ccc(O)c(CNc2nc3ccccc3n2C(C)C)c1` [ureainh-420, 2-((1-isopropyl-1H-benzo[d]imidazol-2-ylamino)methyl)-4-methoxyphenol], for which, for the setting “Table 7, aminobenzimidazoles”, the response was half-maximal at 3000 nM (EC50).

Under “Table 7, aminobenzimidazoles”, `CCn1c(NCc2cc(C)ccc2O)nc2ccccc21` [ureainh-416, 2-((1-ethyl-1H-benzo[d]imidazol-2-ylamino)methyl)-4-methylphenol] returned a half-maximal effective concentration (EC50) of 1000 nM.

Regarding `CNC(=O)COc1ccc(Nc2nnc(-c3ccc(C)c(S(N)(=O)=O)c3)c3ccccc23)cc1` [ureainh-330, N-methyl-2-(4-(4-(4-methyl-3-sulfamoylphenyl)phthalazin-1-ylamino)phenoxy)acetamide], a half-maximal response (Table 5, phthalazinamines) (EC50) required 10000 nM. In turn, `Cc1ccc(-c2nnc(Nc3ccc(OCC(N)=O)cc3)c3ccccc23)cc1` [ureainh-314, 2-(4-(4-p-tolylphthalazin-1-ylamino)phenoxy) acetamide] yielded a concentration giving a half-maximal response (EC50) (Table 5, phthalazinamines) of 2000 nM. On to `CNS(=O)(=O)c1cc(-c2nnc(Nc3ccc(OCC(N)=O)cc3)c3ccccc23)ccc1C` [ureainh-325, 2-(4-(4-(4-methyl-3-(N-methylsulfamoyl)phenyl)phthalazin-1-ylamino)phenoxy)acetamide], for which a half-maximal effect (Table 5, phthalazinamines) (EC50) was put at 2000 nM. As to `Cc1ccc(-c2nnc(Oc3ccccc3)c3ccccc23)cc1` [ureainh-333, 1-phenoxy-4-p-tolylphthalazine], under “Table 5, phthalazinamines”, the EC50 was determined as 3000 nM. For `CCN(CC)CCn1c(NCc2ccccc2O)nc2ccccc21` [ureainh-407, 2-((1-(2-(diethylamino)ethyl)-1H-benzo[d]imidazol-2-ylamino)methyl)phenol], the EC50 (Table 7, aminobenzimidazoles) was determined as 800 nM. On the same count and under the same terms, the value for `CC(C)n1c(NCc2cc(Cl)ccc2O)nc2ccccc21` [ureainh-403, 4-chloro-2-((1-isopropyl-1H-benzo[d]imidazol-2-ylamino)methyl)phenol] was 5000 nM; that for `C=CCn1c(NCc2cc(OC)ccc2O)nc2ccccc21` [ureainh-419, 2-((1-allyl-1H-benzo[d]imidazol-2-ylamino)methyl)-4-methoxyphenol] was 25000 nM. On to `COC(=O)c1ccc(Nc2nnc(-c3ccc(C)c(S(=O)(=O)NCCO)c3)c3ccccc23)cc1` [ureainh-323, methyl 4-(4-(3-(N-(2-hydroxyethyl)sulfamoyl)-4-methylphenyl)phthalazin-1-ylamino) benzoate], for which the EC50 (Table 5, phthalazinamines) amounted to 2000 nM. Same read-out and setting: the same measure for `COc1ccc(-c2nnc(Nc3ccc(-c4nc5ccccc5[nH]4)cc3)c3ccccc23)cc1` [ureainh-313, N-(4-(1H-benzo[d]imidazol-2-yl)phenyl)-4-(4-methoxyphenyl) phthalazin-1-amine]: 10000 nM. With `CC(C)n1c(NCc2cc(Br)ccc2O)nc2ccccc21` [ureainh-405, 4-bromo-2-((1-isopropyl-1H-benzo[d]imidazol-2-ylamino)methyl)phenol], a half-maximal response (Table 7, aminobenzimidazoles) (EC50) required 400 nM.

In the case of `CCn1c(NCc2cccc(OC)c2O)nc2ccccc21` [ureainh-422, 2-((1-ethyl-1H-benzo[d]imidazol-2-ylamino)methyl)-6-methoxyphenol], the midpoint of the response (Table 7, aminobenzimidazoles), the EC50, lay at 11000 nM. Under “Table 5, phthalazinamines”, `NC(=O)c1ccc(-c2nnc(Nc3ccc(O)cc3)c3ccccc23)cc1` [ureainh-306, 4-(4-(4-hydroxyphenylamino)phthalazin-1-yl)benzamide] showed a 50% effective concentration (EC50) of 2000 nM.

`COc1ccc(-c2nnc(Oc3ccccc3)c3ccccc23)cc1` [ureainh-332, 1-(4-methoxyphenyl)-4-phenoxyphthalazine] gave an EC50 (Table 5, phthalazinamines) of 2000 nM. `CCN(CC)C(=O)c1ccc(-c2nnc(Nc3ccc(O)cc3)c3ccccc23)cc1` [ureainh-309, N,N-diethyl-4-(4-(4-hydroxyphenylamino)phthalazin-1-yl)benzamide] displayed an EC50 (Table 5, phthalazinamines) of 5000 nM.

The molecule `CCCCn1c(NCc2cc(C)ccc2O)nc2ccccc21` [ureainh-417, 2-((1-butyl-1H-benzo[d]imidazol-2-ylamino)methyl)-4-methylphenol] came in with an EC50 (Table 7, aminobenzimidazoles) of 2000 nM. On to `CCn1c(NCc2cc(Cl)ccc2O)nc2ccccc21` [ureainh-402, 4-chloro-2-((1-ethyl-1H-benzo[d]imidazol-2-ylamino)methyl)phenol], for which the half-maximal effective concentration (EC50) (Table 7, aminobenzimidazoles) came out at 400 nM. On the same count and under the same terms, the same measure for `CCCn1c(NCc2cc(C)ccc2O)nc2ccccc21` [ureainh-414, 4-methyl-2-((1-propyl-1H-benzo[d]imidazol-2-ylamino)methyl)phenol]: 1000 nM. Molecule `CNC(=O)c1ccc(Nc2nnc(-c3ccc(C(N)=O)cc3)c3ccccc23)cc1` [ureainh-304, 4-(4-(4-carbamoylphenyl)phthalazin-1-ylamino)-N-methylbenzamide] yielded a half-maximal effective concentration (EC50) (Table 5, phthalazinamines) of 600 nM.
